pIC50: −log10 of the molar value.
Each molecule was assayed against T1, LPA2 receptor (LPA2R) (Homo sapiens, UniProt Q9HBW0) (assay: LPA2R-Calciumflux assay (intracellular calcium mobilisation, FLIPR)). Settings: U2OS cells recombinant expressing LPA2R; inhibition of LPA-induced Ca-flux; 10 concentrations 30 uM to 1 nM, 1% DMSO.
T1 construct: expressed in transfected cells; host or cells: U2OS
Assay type: cell-based
Source text: The assay detects intra cellular calcium which is generated by cells upon activation of the LPA2 receptor by its ligand LPA. This transient calcium mobilization can be monitored using a commercial calcium detection kit (e.g. from Molecular Devices). The main component of such a kit is a dye, which becomes fluorescent when calcium is present—a transient fluorescence signal after laddition of a ligand to a test well are the result. Readers like the FLIPR (Molecular Devices) can be used to monitor such transient “Ca-flux” signals.
The signals are calculated according to peak maximum minus base line.
The assay is performed in microplates (384 wells per plate).
LPA2R-Calciumflux Assay Protocol
The assay is run according to the following procedure: • 50 uL seed cells (10000 cells/well in DMEM buffer) • Incubate 24 h at 37° C., 10% CO2 • aspirate medium • 50 uL add calcium dye 1×HBSS/HEPES buffer • incubate 1 h at 37° C. (“loading”) • equilibrate 10 min at RT • 5 uL add compounds in HEPES buffer • shake 10 sec. at 1000 rpm • incubate 15 min at RT • 20 uL add LPA (in the FLIPR Tetra) in Krebs-buffer/BSA & measurement
The cells are seeded in DMEM buffer (DMEM, 10% FCS, 10 mM HEPES, 1% Pen/Strep).
Dye loading is done in HBSS/HEPES buffer (100 mL 10×HBSS+20 mL 1M HEPES+880 mL water, pH 7.4)
The LPA is added in Krebs/BSA buffer (120 mM NaCl, 5 mM KCl, 0.62 mM MgSO4, 1.8 mM CaCl2, 10 mM HEPES, 6 mM D(+)-Glucose, 0.2% BSA, pH 7.4).
The compounds are pre-diluted in HEPES buffer (20 mM, pH 7.4), whereby the final DMSO content in the assay is kept at 1%. The compounds are pre-diluted in order to generate dose response series on the microplates. The dose response series consist of 10 concentrations for each compound from 30 uM final to 1 nM final. From all compound wells the resulting signals are referred to control wells (located on each plate besides the compound wells) in terms of % activity.
From these % activity values—along with the corresponding compound concentrations—IC50 values are fitted for each compound using standard fitting programs such as Graphpad Prism. Here the method “log(inhibitor) vs. response—Variable slope” is used.

T1 sequence (Q9HBW0 whole entry): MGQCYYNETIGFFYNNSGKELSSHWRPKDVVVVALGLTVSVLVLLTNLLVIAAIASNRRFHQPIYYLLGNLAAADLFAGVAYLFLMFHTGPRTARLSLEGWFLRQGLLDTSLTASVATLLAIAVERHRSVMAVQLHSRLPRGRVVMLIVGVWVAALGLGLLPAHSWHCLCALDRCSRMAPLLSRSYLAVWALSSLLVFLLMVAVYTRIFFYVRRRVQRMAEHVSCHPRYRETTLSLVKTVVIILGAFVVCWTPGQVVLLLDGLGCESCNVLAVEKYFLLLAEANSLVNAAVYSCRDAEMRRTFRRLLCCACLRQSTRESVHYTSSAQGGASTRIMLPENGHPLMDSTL

With `Cc1ccc(CN2CCCCC2c2cc3cc(F)ccc3[nH]2)cc1` (centres unmarked) [compound 108, 5-Fluoro2-[1-(4-methyl-benzyl)-piperidin-2-yl]-1H-indole] as the molecule, how does the pIC50 read?
The pIC50 was > 6.30.

How did the pIC50 turn out when `CC(C)n1cc(CN2CCCCC2c2cc3ccccc3[nH]2)c2ccccc21` (centres unmarked) [compound 9, 3-[2-(1H-Indol-2-yl)-piperidin-1-ylmethyl]-1-isopropyl-1H-indole] was run?
The pIC50 was 5.30 to 6.30.

With `Fc1ccc2[nH]c(C3CCCCN3Cc3c[nH]c4ccccc34)cc2c1` (centres unmarked) [compound 63, 5-Fluoro-2-[1-(1H-indol-3-ylmethyl)-piperidin-2-yl]-1H-indole] as the molecule, how does the pIC50 read?
Its pIC50 is 5.30 to 6.30.

How did the pIC50 turn out when `COc1cccc(CN2C(C)CCCC2c2cc3cc(F)ccc3[nH]2)c1` (centres unmarked) [compound 40, 5-Fluoro-2-[1-(3-methoxy-benzyl)-6-methyl-piperidin-2-yl]-1H-indole] was run?
Its pIC50 is > 6.30.

With `Cc1ccc(CN2CCC3C[C@]32c2nc3cc(F)ccc3[nH]2)cc1C` (stereo partly drawn) [compound 135, 2-[(R)-2-(3,4-Dimethyl-benzyl)-2-aza-bicyclo-[3.1.0]hex-1-yl]-5-fluoro-1H-benzo-imidazole] as the molecule, how does the pIC50 read?
The pIC50 was 4.82 to 5.30.

`Fc1ccc(CN2CCCCC2c2nc3nccnc3[nH]2)cc1` (centres unmarked) [compound 133, 2-[1-(4-Fluoro-benzyl)-piperidin-2-yl]-1H-imidazo[4,5-b]pyrazine] was tested. Which pIC50 did it give?
The pIC50 was 4.82 to 5.30.

How did the pIC50 turn out when `Cc1ccc(CN2CCCCC2c2cc3ccccc3[nH]2)cc1` (centres unmarked) [compound 13, 2-[1-(4-Methyl-benzyl)-piperidin-2-yl]-1H-indole] was run?
Its pIC50 is > 6.30.

How did the pIC50 turn out when `Cc1cccc(CN2CCCCC2c2cc3cc(F)ccc3[nH]2)c1` (centres unmarked) [compound 14, 5-Fluoro-2-[1-(3-methyl-benzyl)-piperidin 2-yl]-1H-indole] was run?
The pIC50 was 5.30 to 6.30.

With `COc1ccc(CN2CCCCC2c2cc3ccccc3o2)cc1` (centres unmarked) [compound 48, 2-Benzofuran-2-yl-1-(4-methoxy-benzyl)-piperidine] as the molecule, how does the pIC50 read?
The pIC50 was 5.30 to 6.30.

How did the pIC50 turn out when `COc1ccc2[nH]c(C3CC(C)CCN3Cc3ccc(C)c(C)c3)cc2c1` (centres unmarked) [compound 83, 2-[1-(3,4-Dimethyl-benzyl)-4-methyl-piperidin-2-yl]-5-methoxy-1H-indole] was run?
Its pIC50 is 5.30 to 6.30.

How did the pIC50 turn out when `Fc1ccc2[nH]c(C3CCCCN3Cc3cccc(Cl)c3Cl)cc2c1` (centres unmarked) [compound 54, 2-[1-(2,3-Dichloro-benzyl)-piperidin-2-yl]-5-fluoro-1H-indole] was run?
Its pIC50 is 5.30 to 6.30.

With `Cc1ccc(CN2CCCCC2c2nc3ccc(S(N)(=O)=O)cc3[nH]2)cc1C(F)(F)F` (centres unmarked) [compound 117] as the molecule, how does the pIC50 read?
The pIC50 was 5.30 to 6.30.

How did the pIC50 turn out when `Cc1ccc(CN2CCCCC2c2nc3ccc(S(N)(=O)=O)cc3[nH]2)cc1C` (centres unmarked) [compound 116, 2-[1-(3,4-Dimethyl-benzyl)-piperidin-2-yl]-3H-benzo-imidazole-5-sulfonic acid amide] was run?
Its pIC50 is > 6.30.

With `CC1CCCN(Cc2ccc(F)cc2)C1c1cc2ccccc2[nH]1` (centres unmarked) [compound 81, 2-[1-(4-Fluoro-benzyl)-3-methyl-piperidin-2-yl]-1H-indole] as the molecule, how does the pIC50 read?
Its pIC50 is 5.30 to 6.30.

`COc1ccc(CN2CCCCC2c2cc3ccccc3[nH]2)cc1` (centres unmarked) [compound 1, 2-[1-(4-Methoxy-benzyl)-piperidin-2-yl]-1H-indole] was tested. Which pIC50 did it give?
Its pIC50 is 5.30 to 6.30.

With `Fc1ccc(CN2CCCCC2c2cc3cccnc3[nH]2)cc1` (centres unmarked) [compound 144, 2-[1-(4-Fluoro-benzyl)-piperidin-2-yl]-1H-pyrrolo[2,3-b]pyridine] as the molecule, how does the pIC50 read?
The pIC50 was 5.30 to 6.30.

How did the pIC50 turn out when `COc1ccc(CN2CCC(C)CC2c2cc3cc(F)ccc3[nH]2)cc1` (centres unmarked) [compound 64, 5-Fluoro-2-[1-(4-methoxy-benzyl)-4-methyl-piperidin-2-yl]-1H-indole] was run?
Its pIC50 is 5.30 to 6.30.

`CC1CCCC(c2cc3cc(F)ccc3[nH]2)N1Cc1ccc(Cl)cc1` (centres unmarked) [compound 39, 2-[1-(4-Chloro-benzyl)-6-methyl-piperidin-2-yl]-5-fluoro-1H-indole] was tested. Which pIC50 did it give?
Its pIC50 is 5.30 to 6.30.

`Fc1ccc2[nH]c(C3CCCCN3Cc3ccccc3)nc2c1` (centres unmarked) [compound 102, 2-(1-Benzyl-piperidin-2-yl)-5-fluoro-1H-benzo-imidazole] was tested. Which pIC50 did it give?
Its pIC50 is 5.30 to 6.30.

With `Cc1cc2nc(C3CCCCN3Cc3ccc(C)c(C(F)(F)F)c3)[nH]c2cc1Cl` (centres unmarked) [compound 127] as the molecule, how does the pIC50 read?
The pIC50 was 5.30 to 6.30.

With `Cc1cccc(CN2CCCCC2c2nc3ccc(Cl)cc3[nH]2)c1` (centres unmarked) [compound 91, 6-Chloro 2-[1-(3-methyl-benzyl)-piperidin-2-yl]-1H-benzo-imidazole] as the molecule, how does the pIC50 read?
The pIC50 was > 6.30.

How did the pIC50 turn out when `CC1CCCC(c2cc3cc(F)ccc3[nH]2)N1Cc1cccc([N+](=O)[O-])c1` (centres unmarked) [compound 31, 5-Fluoro-2-[6-methyl-1-(3-nitro-benzyl)-piperidin-2-yl]-1H-indole] was run?
The pIC50 was 5.30 to 6.30.

How did the pIC50 turn out when `Fc1ccc(CN2CCCC[C@H]2c2cc3ccccc3[nH]2)cc1` [compound 124, 2-[(S)-1-(4-Fluoro-benzyl)-piperidin-2-yl]-1H-indole] was run?
Its pIC50 is 5.30 to 6.30.

How did the pIC50 turn out when `N#Cc1ccc(CN2CCCCC2c2cc3c(F)ccc(F)c3[nH]2)cc1` (centres unmarked) [compound 42, 4-[2-(4,7-Difluoro-1H-indol-2-yl)-piperidin-1-ylmethyl]-benzonitrile] was run?
Its pIC50 is 4.82 to 5.30.

`Cc1ccc(CN2C(C)CCCC2c2cc3cc(F)ccc3[nH]2)o1` (centres unmarked) [compound 38, 5-Fluoro-2-[6-methyl-1-(5-methyl-furan-2-ylmethyl)-piperidin-2-yl]-1H-indole] was tested. Which pIC50 did it give?
Its pIC50 is > 6.30.

`CC1CCCC(c2cc3cc(F)ccc3[nH]2)N1Cc1ccc(F)cc1` (centres unmarked) [compound 36, 5-Fluoro-2-[1-(4-fluoro-benzyl)-6-methyl-piperidin-2-yl]-1H-indole] was tested. Which pIC50 did it give?
The pIC50 was > 6.30.

How did the pIC50 turn out when `CC1(C)CCC(C)(C)c2cc(CN3CCCCC3c3nc4ccc(S(N)(=O)=O)cc4[nH]3)ccc21` (centres unmarked) [compound 118, 2-[1-(5,5,8,8-Tetramethyl-5,6,7,8-tetrahydro-naphthalen-2-ylmethyl)-piperidin-2-yl]-3H-benzo-imidazole-5-sulfonic acid amide] was run?
Its pIC50 is 5.30 to 6.30.

How did the pIC50 turn out when `CCOC(=O)c1ccc(CN2CCCCC2c2cc3ccccc3[nH]2)cc1` (centres unmarked) [compound 25, 4-[2-(1H-Indol-2-yl)-piperidin-1-ylmethyl]-benzoic acid ethyl ester] was run?
Its pIC50 is 5.30 to 6.30.

With `Cc1ccc(CN2CCCC[C@H]2c2cc3cc(F)ccc3[nH]2)cc1C` [compound 139, 2-[(S)-1-(3,4-Dimethyl-benzyl)-piperidin-2-yl]-5-fluoro-1H-indole] as the molecule, how does the pIC50 read?
Its pIC50 is 5.30 to 6.30.

`Fc1ccc(CN2CCCC[C@@H]2c2cc3cc(F)ccc3[nH]2)cc1` [compound 136, 5-Fluoro-2-[(R)-1-(4-fluoro-benzyl)-piperidin-2-yl]-1H-indole] was tested. Which pIC50 did it give?
Its pIC50 is > 6.30.

With `NS(=O)(=O)c1ccc2nc(C3CCCCN3Cc3cccc(C(F)(F)F)c3)[nH]c2c1` (centres unmarked) [compound 115] as the molecule, how does the pIC50 read?
Its pIC50 is 5.30 to 6.30.

`Cc1ccc(CN2C(C)CCCC2c2cc3cc(F)ccc3[nH]2)cc1` (centres unmarked) [compound 46, 5-Fluoro-2-[6-methyl-1-(4-methyl-benzyl)-piperidin-2-yl]-1H-indole] was tested. Which pIC50 did it give?
Its pIC50 is 5.30 to 6.30.

`COc1ccc(CN2CCCC(C)C2c2cc3c4c(ccc3[nH]2)CCC4)cc1` (centres unmarked) [compound 76, 2-[1-(4-Methoxy-benzyl)-3-methyl-piperidin-2-yl]-3,6,7,8-tetrahydro-cyclopenta [e]indole] was tested. Which pIC50 did it give?
The pIC50 was 4.82 to 5.30.

How did the pIC50 turn out when `Fc1ccc(CN2CCCC[C@H]2c2cc3cc(F)ccc3[nH]2)cc1` [compound 137, 5-Fluoro-2-[(S)-1-(4-fluoro-benzyl)-piperidin-2-yl]-1H-indole] was run?
Its pIC50 is 5.30 to 6.30.

How did the pIC50 turn out when `Cc1ccc(CN2CCCC[C@@H]2c2nc3cc(Cl)cnc3[nH]2)cc1C` [compound 140, 6-Chloro-2-[(R)-1-(3,4-dimethyl-benzyl)-piperidin-2-yl]-3H-imidazo[4,5-b]pyridine] was run?
Its pIC50 is 5.30 to 6.30.

`Cc1ccc(CN2CCCCC2c2nc3cc(C)c(Cl)cc3[nH]2)cc1C` (centres unmarked) [compound 114, 6-Chloro-2-[1-(3,4-dimethyl-benzyl)-piperidin-2-yl]-5-methyl-1H-benzo-imidazole] was tested. Which pIC50 did it give?
The pIC50 was > 6.30.

With `Cc1ccc(CN2CCCC[C@@H]2c2nc3cc(F)ccc3[nH]2)cc1C` [compound 119, 2-[(R)-1-(3,4-Dimethyl-benzyl)-piperidin-2-yl]-5-fluoro-1H-benzo-imidazole] as the molecule, how does the pIC50 read?
The pIC50 was > 6.30.

`Cc1ccc(CN2CCC(C)CC2c2cc3ccccc3[nH]2)cc1C` (centres unmarked) [compound 79, 2-[1-(3,4-Dimethyl-benzyl)-4-methyl-piperidin-2-yl]-1H-indole] was tested. Which pIC50 did it give?
The pIC50 was 5.30 to 6.30.

How did the pIC50 turn out when `Fc1ccc(CCCN2CCCCC2c2cc3cc(F)ccc3[nH]2)cc1` (centres unmarked) [compound 132, 5-Fluoro-2-{1-[3-(4-fluoro-phenyl)-propyl)-piperidin-2-yl}-1H-indole] was run?
Its pIC50 is 4.82 to 5.30.

How did the pIC50 turn out when `Cc1ccc(CN2CCCCC2c2nc3nccnc3[nH]2)cc1C` (centres unmarked) [compound 134, 2-[1-(3,4-Dimethyl-benzyl)-piperidin-2-yl]-1H-imidazo[4,5-b]pyrazine] was run?
The pIC50 was > 6.30.

How did the pIC50 turn out when `Cc1ccc(CN2CCCCC2c2cc3cc(F)ccc3[nH]2)cc1C` (centres unmarked) [compound 15, 2-[1-(3,4-Dimethyl-benzyl)-piperidin-2-yl]-5-fluoro-1H-indole] was run?
Its pIC50 is 5.30 to 6.30.

Source: patent US9527850B2, “Benzyl piperidine compounds as lysophosphatidic acid (LPA) receptor antagonist” (Merck Patent GmbH, priority 2011, dated 2016)
